Each structure is given as a SMILES string.

This assay deals with recombinant NL4-3 virus (Renilla luciferase in nef, Gag P373S). The experiment in a line: HIV Cell Culture Assay (luciferase reporter virus in MT-2 cells). The class given is cell-based. The settings on record: NL43, read-out: EC50 Group. The method, then:
MT-2 cells and 293T cells were obtained from the NIH AIDS Research and Reference Reagent Program. MT-2 cells were propagated in RPMI 1640 media supplemented with 10% heat inactivated fetal bovine serum, […]. The 293T cells were propagated in DMEM media supplemented with 10% heat inactivated fetal bovine serum (FBS), 100 units/ml penicillin G and 100 μg/ml streptomycin. The proviral DNA clone of NL4-3 was obtained from the NIH AIDS Research and Reference Reagent Program. A recombinant NL4-3 virus, in which a section of the nef gene from NL4-3 was replaced with the Renilla luciferase gene, was used as a reference virus. In addition, residue Gag P373 was converted to P373S. Briefly, the recombinant virus was prepared by transfection of the altered proviral clone of NL4-3. Transfections were performed in 293T cells using LipofectAMINE PLUS from Invitrogen (Carlsbad, Calif.), according to manufacturer's instruction. The virus was titered in MT-2 cells using luciferase enzyme activity as a marker. Luciferase was quantitated using the Dual Luciferase kit from Promega (Madison, Wis.), with modifications to the manufacturer's protocol. The diluted Passive Lysis solution was pre-mixed with the re-suspended Luciferase Assay Reagent and the re-suspended Stop & Glo Substrate (2:1:1 ratio). Fifty (50) μL of the mixture was added to each aspirated well on assay plates and luciferase activity was measured immediately on a Wallac TriLux (Perkin-Elmer). Antiviral activities of inhibitors toward the recombinant virus were quantified by measuring luciferase activity in cells infected for 4-5 days with NLRluc recombinants in the presence serial dilutions of the inhibitor. Table 1 is the key for the data in Table 2.
Consider `C=C(C)[C@@H]1CC[C@]2(C(=O)N3CCC[C@@H]3CO)CC[C@]3(C)[C@H](CC[C@@H]4[C@@]5(C)CC=C(c6ccc(C(=O)O)cc6)C(C)(C)[C@@H]5CC[C@]43C)[C@@H]12` [Example 9, 4-((1R,3aS,5aR,5bR,7aR,11aS,11bR,13aR,13bR)-3a-((R)-2-(hydroxymethyl)pyrrolidine-1-carbonyl)-5a,5b,8,8,11a-pentamethyl-1-(prop-1-en-2-yl)-2,3,3a,4,5,5a,5b,6,7,7a,8,11,11a,11b,12,13,13a,13b-octadecahydro-1H-cyclopenta[a]chrysen-9-yl)benzoic acid], for which the 50% effective concentration (EC50) – broadly, the concentration that produces a half-maximal response – is below 100 nM.
Next, `C=C(C)[C@@H]1CC[C@]2(C(=O)NS(=O)(=O)N(C)C)CC[C@]3(C)[C@H](CC[C@@H]4[C@@]5(C)CC=C(c6ccc(C(=O)O)cc6)C(C)(C)[C@@H]5CC[C@]43C)[C@@H]12` [Example 7, 4-((1R,3aS,5aR,5bR,7aR,11aS,11bR,13aR,13bR)-3a-(N,N-dimethylsulfamoylcarbamoyl)-5a,5b,8,8,11a-pentamethyl-1-(prop-1-en-2-yl)-2,3,3a,4,5,5a,5b,6,7,7a,8,11,11a,11b,12,13,13a,13b-octadecahydro-1H-cyclopenta[a]chrysen-9-yl)benzoic acid]: below 100 nM; `C=C(C)[C@@H]1CC[C@]2(C(=O)NCCN(C)C(C)=O)CC[C@]3(C)[C@H](CC[C@@H]4[C@@]5(C)CC=C(c6ccc(C(=O)O)cc6)C(C)(C)[C@@H]5CC[C@]43C)[C@@H]12` [Example 75, 4-((1R,3aS,5aR,5bR,7aR,11aS,11bR,13aR,13bR)-5a,5b,8,8,11a-pentamethyl-3a-(2-(N-methylacetamido)ethylcarbamoyl)-1-(prop-1-en-2-yl)-2,3,3a,4,5,5a,5b,6,7,7a,8,11,11a,11b,12,13,13a,13b-octadecahydro-1H-cyclopenta[a]chrysen-9-yl)benzoic acid]: below 100 nM.
As to `C=C(C)[C@@H]1CC[C@]2(C(=O)NCCc3ccccn3)CC[C@]3(C)[C@H](CC[C@@H]4[C@@]5(C)CC=C(c6ccc(C(=O)OC)cc6)C(C)(C)[C@@H]5CC[C@]43C)[C@@H]12` [Example 20, methyl 4-((1R,3aS,5aR,5bR,7aR,11aS,11bR,13aR,13bR)-5a,5b,8,8,11a-pentamethyl-1-(prop-1-en-2-yl)-3a-(2-(pyridin-2-yl)ethylcarbamoyl)-2,3,3a,4,5,5a,5b,6,7,7a,8,11,11a,11b,12,13,13a,13b-octadecahydro-1H-cyclopenta[a]chrysen-9-yl)benzoate], the EC50 is above 100 nM.
Next, `C=C(C)[C@@H]1CC[C@]2(C(=O)NCCOC)CC[C@]3(C)[C@H](CC[C@@H]4[C@@]5(C)CC=C(c6ccc(C(=O)O)cc6)C(C)(C)[C@@H]5CC[C@]43C)[C@@H]12` [Example 69, 4-((1R,3aS,5aR,5bR,7aR,11aS,11bR,13aR,13bR)-3a-(2-methoxyethylcarbamoyl)-5a,5b,8,8,11a-pentamethyl-1-(prop-1-en-2-yl)-2,3,3a,4,5,5a,5b,6,7,7a,8,11,11a,11b,12,13,13a,13b-octadecahydro-1H-cyclopenta[a]chrysen-9-yl)benzoic acid]: below 100 nM; `C=C(C)[C@@H]1CC[C@]2(C(=O)NCCN3CCN(C)CC3)CC[C@]3(C)[C@H](CC[C@@H]4[C@@]5(C)CC=C(c6ccc(C(=O)O)cc6)C(C)(C)[C@@H]5CC[C@]43C)[C@@H]12` [Example 36, 4-((1R,3aS,5aR,5bR,7aR,11aS,11bR,13aR,13bR)-5a,5b,8,8,11a-pentamethyl-3a-(2-(4-methylpiperazin-1-yl)ethylcarbamoyl)-1-(prop-1-en-2-yl)-2,3,3a,4,5,5a,5b,6,7,7a,8,11,11a,11b,12,13,13a,13b-octadecahydro-1H-cyclopenta[a]chrysen-9-yl)benzoic acid]: below 100 nM.
With `C=C(C)[C@@H]1CC[C@]2(C(=O)NCCNC(C)=O)CC[C@]3(C)[C@H](CC[C@@H]4[C@@]5(C)CC=C(c6ccc(C(=O)O)cc6)C(C)(C)[C@@H]5CC[C@]43C)[C@@H]12` [Example 30, 4-((1R,3aS,5aR,5bR,7aR,11aS,11bR,13aR,13bR)-3a-(2-acetamidoethylcarbamoyl)-5a,5b,8,8,11a-pentamethyl-1-(prop-1-en-2-yl)-2,3,3a,4,5,5a,5b,6,7,7a,8,11,11a,11b,12,13,13a,13b-octadecahydro-1H-cyclopenta[a]chrysen-9-yl)benzoic acid] the figure was below 100 nM.
With `C=C(C)[C@@H]1CC[C@]2(C(=O)NCCCN3CCS(=O)(=O)CC3)CC[C@]3(C)[C@H](CC[C@@H]4[C@@]5(C)CC=C(c6ccc(C(=O)O)cc6)C(C)(C)[C@@H]5CC[C@]43C)[C@@H]12` [Example 85, 4-((1R,3aS,5aR,5bR,7aR,11aS,11bR,13aR,13bR)-3a-((3-(1,1-dioxido-4-thiomorpholinyl)propyl)carbamoyl)-1-isopropenyl-5a,5b,8,8,11a-pentamethyl-2,3,3a,4,5,5a,5b,6,7,7a,8,11,11a,11b,12,13,13a,13b-octadecahydro-1H-cyclopenta[a]chrysen-9-yl)benzoic acid] the figure was below 100 nM.
Take `C[C@H]1[C@H](C)CC[C@]2(C(=O)NCCN(C)C)CC[C@]3(C)C(=CC[C@@H]4[C@@]5(C)CC=C(c6ccc(C(=O)O)cc6)C(C)(C)[C@@H]5CC[C@]43C)[C@H]12` [Example A1, 4-((4aR,6aR,6bS,8aS,11R,12S,12aS,14aR,14bS)-8a-(2-(dimethylamino)ethylcarbamoyl)-4,4,6a,6b,11,12,14b-heptamethyl-1,4,4a,5,6,6a,6b,7,8,8a,9,10,11,12,12a,14,14a,14b-octadecahydropicen-3-yl)benzoic acid]: the 50% effective concentration (EC50) is below 100 nM.
Next, `C=C(C)[C@@H]1CC[C@]2(C(=O)NCCN(CC)CCO)CC[C@]3(C)[C@H](CC[C@@H]4[C@@]5(C)CC=C(c6ccc(C(=O)O)cc6)C(C)(C)[C@@H]5CC[C@]43C)[C@@H]12` [Example 72, 4-((1R,3aS,5aR,5bR,7aR,11aS,11bR,13aR,13bR)-3a-(2-(ethyl(2-hydroxyethyl)amino)ethylcarbamoyl)-5a,5b,8,8,11a-pentamethyl-1-(prop-1-en-2-yl)-2,3,3a,4,5,5a,5b,6,7,7a,8,11,11a,11b,12,13,13a,13b-octadecahydro-1H-cyclopenta[a]chrysen-9-yl)benzoic acid]: below 100 nM.
With `C=C(C)[C@@H]1CC[C@]2(C(=O)NCCN3CCS(=O)(=O)CC3)CC[C@]3(C)[C@H](CC[C@@H]4[C@@]5(C)CC=C(c6ccc(C(=O)O)c(F)c6)C(C)(C)[C@@H]5CC[C@]43C)[C@@H]12` [Example 116, 4-((1R,3aS,5aR,5bR,7aR,11aS,11bR,13aR,13bR)-3a-((2-(1,1-dioxido-4-thiomorpholinyl)ethyl)carbamoyl)-1-isopropenyl-5a,5b,8,8,11a-pentamethyl-2,3,3a,4,5,5a,5b,6,7,7a,8,11,11a,11b,12,13,13a,13b-octadecahydro-1H-cyclopenta[a]chrysen-9-yl)-2-fluorobenzoic acid] the figure was below 100 nM.

These data come from US8802661B2, “C-28 amides of modified C-3 betulinic acid derivatives as HIV maturation inhibitors” (priority 2010, dated 2014).
